This is an account of results in patent US6413974B1, “6,9,-disubstituted 2-[trans-(4-aminocyclohexyl) amino] purines” (Aventis Pharmaceuticals Inc., priority 1998, dated 2002).

“And” between values parts separate entries of the source, which are not always exact repeats. Equal values may be shown once. Where a name gives a salt, the structure may show the parent alone. Read-outs that look alike come from different tables or passages of the source.

Assay [1] has as its system p34^cdc2-cyclin B kinases. The following applies: Havlicek et al. 1997; cited from earlier work.
Another assay concerns HCT-15. Description: In vitro tumor cell proliferation, HCT-15. It counts as cell-based, human. Conditions: read-out: In vitro Tumor Cell Proliferation (IC50, μM) Colon HCT-15. In outline: (§1)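 SRB read-out: 3-day drug exposure, medium and drug renewed, 4 further days, TCA fixation at 4° C, 0.4% SRB stain. CyQUANT alternative: 3-day drug exposure, then plates frozen at −80° C ≥30 min. Cells plated overnight at 37° C before dosing.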

The target of the next assay is T1, cdk4/cyclin D1 (Homo sapiens, UniProt P11802).
T1 construct: made in house; host or cells: Sf9 insect cells (Bac-to-Bac baculovirus, pFastBac)
T1 sequence (P11802 whole entry): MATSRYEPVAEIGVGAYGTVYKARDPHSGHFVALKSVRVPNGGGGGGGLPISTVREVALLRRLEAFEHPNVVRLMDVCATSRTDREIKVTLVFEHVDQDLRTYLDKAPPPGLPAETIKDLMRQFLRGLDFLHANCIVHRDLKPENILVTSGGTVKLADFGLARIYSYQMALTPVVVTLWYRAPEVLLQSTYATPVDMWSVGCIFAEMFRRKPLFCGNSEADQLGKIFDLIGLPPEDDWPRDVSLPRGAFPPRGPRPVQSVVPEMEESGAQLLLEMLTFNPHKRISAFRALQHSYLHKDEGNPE
T1 sequence (P24385 whole entry partner): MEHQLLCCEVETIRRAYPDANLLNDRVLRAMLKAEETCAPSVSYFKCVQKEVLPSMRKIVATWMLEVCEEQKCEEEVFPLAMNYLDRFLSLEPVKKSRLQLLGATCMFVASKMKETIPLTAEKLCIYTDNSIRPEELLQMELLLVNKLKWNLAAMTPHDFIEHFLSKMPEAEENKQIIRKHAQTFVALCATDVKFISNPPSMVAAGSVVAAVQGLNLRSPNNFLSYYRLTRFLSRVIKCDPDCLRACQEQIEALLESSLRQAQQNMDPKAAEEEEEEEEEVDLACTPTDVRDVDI
The experiment in a line: Cyclin-dependent kinase 4 Assay. It counts as biochemical. Conditions: cdk4/cyclin D1, GST-Rb substrate, 10 μM ATP, 30 min at 37° C.; read-out: CDK4 Inhibition IC50. The procedure, abridged: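 Insect-cell lysate of coexpressed human cdk4/cyclin D1 (0.1 μg) phosphorylated bead-bound GST-Rb (0.5 μg) in 50 mM HEPES pH 7.5, 10 mM MgCl2, 1 mM EGTA for 30 min at 37 °C. Filters were washed with TNEN and scintillation-counted; IC50 values derived.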

A further assay relates to MDA-MB-231. The experiment in a line: In vitro tumor cell proliferation, MDA-MB-231. It counts as cell-based, human. The following applies: read-out: In vitro Tumor Cell Proliferation (IC50, μM) Breast MDA-MB-231. The procedure, abridged:
as §1

For another assay, the system named is HT-29. Description: In vitro tumor cell proliferation, HT-29. Type of assay: cell-based, human. Conditions: read-out: In vitro Tumor Cell Proliferation (IC50, μM) Colon HT-29 (converted). In outline:
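HT-29 human colon adenocarcinoma cells plated overnight at 37° C., then exposed to drug for 3 days, medium with fresh drug replaced for a further 4 days. Cells fixed with 10% TCA and stained with 0.4% sulforhodamine B; alternatively, CyQUANT read after 3 days of drug exposure.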

For another assay, the system named is MCF-7. The experiment in a line: In vitro tumor cell proliferation, MCF-7. It counts as cell-based, human. The following applies: read-out: In vitro Tumor Cell Proliferation (IC50, μM) Breast MCF-7. As to the method: The proliferation of tumor cells was measured using a sulforhodamine B assay as described in Skehan, P., et al., J. Natl. Cancer Inst. […] Tumor cells were harvested with trypsin-EDTA, cells that excluded trypan blue were counted, added to 96-well plates and incubated overnight at 37° C. Drug was added to the wells following dilution in culture medium. Three days later, the medium was removed and replenished with medium containing fresh drug and incubated an additional 4 days. The cells were then fixed with 0.1 ml 10% trichloroacetic acid for 60 min at 4° C. The plates were rinsed five times with tap water, air-dried and stained for 30 min with 0.4% sulforhodamine B in 1% acetic acid and air-dried.
Alternatively, the CyQUANT cell proliferation assay was used to quantify tumor cell proliferation. Tumor cells were harvested with trypsin-EDTA, cells that excluded trypan blue were counted, added to 96-well plates and incubated overnight at 37° C. Drug was added to the wells following dilution in culture medium. Three days later the medium was removed and the plates frozen at −80° C. for at least 30 minutes.
MCF7 is a human breast adenocarcinoma, hormone-dependent (HTB 22);

Another assay has as its system A549. The experiment in a line: In vitro tumor cell proliferation, A549. Type of assay: cell-based, human. The following applies: read-out: In vitro Tumor Cell Proliferation (IC50, μM) Lung A549. In outline:
as §1

The next assay has as its target T2, cdk2/cyclin E (Homo sapiens, UniProt P24941).
T2 construct: made in house; host or cells: insect cells (baculovirus co-infection)
Description: Cyclin-Dependent Kinase 2 Assay (cdk-2 inhibition). It counts as biochemical. The following applies: GST-Rb substrate, 30 min at 30° C. The procedure, abridged: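 GST-Rb bound to glutathione-Sepharose beads (0.5 μg/well) as substrate in 50 mM HEPES pH 7.5, 10 mM MgCl2, 1 mM EGTA. Recombinant cdk2/cyclin E at 0.1 μg per 100 μl, 30 min at 30 °C. Reaction stopped by filtration, TNEN washes, scintillation counting.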

For the next assay, the system named is DU 145. Description: In vitro tumor cell proliferation, DU 145. The following applies: read-out: In vitro Tumor Cell Proliferation (IC50, μM) Prostate DUI45. It counts as cell-based, human. In outline: as §1
Another assay relates to DMS-114. Description: In vitro tumor cell proliferation, DMS-114. Type of assay: cell-based, human. Conditions: read-out: In vitro Tumor Cell Proliferation (IC50, μM) Lung DMS-114. The procedure, abridged:
as §1

For the next assay, the system named is PC-3. The experiment in a line: In vitro tumor cell proliferation, PC-3. It counts as cell-based, human. The following applies: read-out: In vitro Tumor Cell Proliferation (IC50, μM) Prostate PC-3. In outline:
as §1

The test system of a further assay is proliferating PC12 cells. Conditions: cited from earlier work.
For assay [2], the system named is neuronal PC12 cells and sympathetic neurons. Conditions: cited from earlier work.
The subject of assay [3] is PC12 cells, or rat sympathetic neurons. The following applies: cited from earlier work.
The next assay has as its system cortical neurons. The following applies: cited from earlier work.
[4] abbreviates: Homo sapiens, HCT-15, values without *.
The mark [5] stands for this setting: values without *, trihydrochloride.
Setting [6] is: Homo sapiens, MDA-MB-231, values without *.
Setting [7] is: Homo sapiens, HT-29, values without *.
The mark [8] stands for this setting: Homo sapiens, MCF7, values without *.
The mark [9] stands for this setting: Homo sapiens, A549, values without *.
The mark [10] stands for this setting: Homo sapiens, DU-145, values without *.
[11] abbreviates: Homo sapiens, DMS-114, values without *.
[12] abbreviates: Homo sapiens, PC-3, values without *.
Setting [13] is: values without *, dihydrochloride.

With `CC[C@@H](CO)Nc1nc(NCc2ccccc2)c2ncn(C(C)C)c2n1` (single isomer, unassigned) [(S) enantiomer], in [1], the IC50 is 800 nM.
As to `CC(C)n1cnc2c(NCc3ccccc3)nc(N[C@H]3CC[C@H](N)CC3)nc21` [Example 45, 2-[Trans-(4-aminocyclohexyl)amino]-6-(benzylamino)-9-(2-propyl)purine trihydrochloride], the IC50 with HCT-15 (setting [4]) was 16 µM; with HCT-15 (setting [5]), 17 µM; on cdk4/cyclin D1, 12000 nM; in the assay with MDA-MB-231 (setting [6]), 4 µM; in the assay on MDA-MB-231 (setting [5]), 3 µM; with HT-29 (setting [7]) it was 4.8 µM. For the same compound, the IC50 with HT-29 (setting [5]) was 3.5 µM; in the assay with MCF-7 (setting [8]) it was 1.6 µM; in the assay with MCF-7 (setting [5]), 1.7 µM; in the assay on A549 (setting [9]), 2 µM; in the assay on A549 (setting [5]), 1.8 µM; at cdk2/cyclin E, 180 nM. For the same compound, the IC50 was 2.5 µM in the assay on DU 145 (setting [10]); 1.9 µM in the assay with DU 145 (setting [5]); 2.1 µM in the assay with DMS-114 (setting [11]); 1.6 µM in the assay with DMS-114 (setting [5]); 2.4 µM with PC-3 (setting [12]); 1.4 µM with PC-3 (setting [5]).
`N[C@H]1CC[C@H](Nc2nc(NCCCn3ccnc3)c3ncn(C4CCCC4)c3n2)CC1` [Example 46, 2-[Trans-(4-aminocyclohexyl)amino]-6-[3-(1-imidazolyl)propylamino]-9-cyclopentylpurine dihydrochloride]: the IC50 in the assay on HCT-15 (setting [13]) was 16 µM; on cdk4/cyclin D1 it was 450 nM; in the assay on MDA-MB-231 (setting [6]) it was 5.2 µM; in the assay with MDA-MB-231 (setting [13]) it was 7 µM; in the assay on HT-29 (setting [7]) it was 6.2 µM; with HT-29 (setting [13]) it was 9.7 µM. The IC50 in the assay with MCF-7 (setting [8]) is 3.5 µM; in the assay on MCF-7 (setting [13]), 4.9 µM; with A549 (setting [9]), 6 µM; in the assay with A549 (setting [13]), 6.7 µM; at cdk2/cyclin E, 20 nM and 17 nM and 21 nM; with DU 145 (setting [10]), 5.1 µM. Also, the IC50 in the assay on DU 145 (setting [13]) came out at 6 µM; in the assay with DMS-114 (setting [11]) it was 5.4 µM; in the assay with DMS-114 (setting [13]) it was 7.4 µM; in the assay on PC-3 (setting [12]) it was 2 µM; in the assay on PC-3 (setting [13]) it was 3 µM.
Take `CN1CC[C@H](c2c(O)cc(O)c3c(=O)cc(-c4ccccc4Cl)oc23)[C@H](O)C1` [Flavoipiridol, reference compound]: the IC50 with HCT-15 (setting [4]) is 0.1 µM; in the assay on MDA-MB-231 (setting [6]), 0.095 µM; in the assay on MCF-7 (setting [8]), 0.06 µM; in the assay with A549 (setting [9]) it was 0.08 µM; with DU 145 (setting [10]) it was 0.08 µM; in the assay with DMS-114 (setting [11]), 0.08 µM. Further, the IC50 in the assay with cortical neurons (Park et al. 1997, read-out: IC50, protection against camptothecin-induced cortical neuronal death) is 100 nM; in the assay with PC-3 (setting [12]) it was 0.07 µM. In the assay on proliferating PC12 cells, the “minimum concentration that fully inhibits DNA synthesis” value was 1 µM. In assay [2] (following withdrawal of NGF), the “apoptosis of post-mitotic differentiated or sympathetic neurons” value is on record as “prevented apoptosis”. The “death of neuronal PC12 cells and sympathetic neurons” value in assay [2] (two model systems of neuronal survival, Park et al. 1996) is listed as “suppress the death”. The “cell death at day 6” value in assay [3] (both or individual olomoucine or flavopiridol, in the presence or absence of camptothecin) is “approximately 30%”. In addition, the “concentration giving maximal protection from death” value in [3] (camptothecin-treated PC12 cells or rat sympathetic neurons) is 1 µM.
On to `Cn1cnc2nc(NCCO)nc(NCc3ccccc3)c21` [iso-olomoucine], for which the “prevention of cell death of camptothecin-treated neuronal cells” value (in [3] (PC12 cells / sympathetic neurons); with cortical neurons (cortical neurons)) was “failed to prevent the cell death” each time.
